Data as given in patent US9890166B2, “Imidazopyrrolidine derivatives and their use in the treatment of disease” (NOVARTIS AG, priority 2013, dated 2018).

Columns and labels:
BRD3 (His-Brd3(20-477)) = BRD3 (His-Brd3(20-477)) (Homo sapiens (Human), UniProt Q15059); assay: TR-FRET in-vitro binding assay for BRD3; details: single determination or n ≧ 2 independent determinations, read-out: Biochemical IC50 BRD3
How it was run: (§1)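 In this TR-FRET format, each compound was tested as an 8-point dilution series, single point per concentration, dispensed from 90% DMSO solution. Incubation lasted 35 minutes at 30° C.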

K-562 cells = assay: Cell growth inhibition assay (CellTiter-Glo), K-562; details: for GI50: Homo sapiens, K562, read-out: K-562 GI50; for K-562 TGI: K-562 cells, total growth inhibition, CellTiter-Glo;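 as to all read-outs here: cellular ATP measured by luminescence after 4 days of exposure, 3-fold dilution series from 10 µM, DMSO vehicle-treated cells define 100%, cell-free medium wells −100%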
BRD2 (His-Brd2(60-472)) = BRD2 (His-Brd2(60-472)) (Homo sapiens (Human), UniProt P25440); assay: TR-FRET in-vitro binding assay for BRD2; details: single determination or n ≧ 2 independent determinations, read-out: Biochemical IC50 BRD2
How it was run: as §1

BRD4 (His-Brd4(44-477)) = BRD4 (His-Brd4(44-477)) (Homo sapiens (Human), UniProt O60885); assay: TR-FRET in-vitro binding assay for BRD4; details: single determination or n ≧ 2 independent determinations, read-out: Biochemical IC50 BRD4
How it was run: as §1

MV-4-11 cells = assay: Cell growth inhibition assay (CellTiter-Glo), MV-4-11; details: for GI50: Homo sapiens, MV4-11, read-out: MV-4-11 GI50; for MV-4-11 TGI: MV-4-11 cells, total growth inhibition, CellTiter-Glo;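 as to all read-outs here: cellular ATP luminescence after 4 days, 3-fold dilution series from 10 µM top dose, vehicle (0.1% DMSO) set to 100%, cell-free medium set to −100%, day 0 corrected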
[1] = molecular target: nuclear BRD4-NUT foci in HCC2494 NUT midline carcinoma cells (Homo sapiens, UniProt O60885); assay: cell-based
[2] = molecular target: CREBBP bromodomain (His-CREBBP(1081-1197)) (Homo sapiens (Human), UniProt Q92793); assay: AlphaScreen in-vitro binding assay for CREBBP; details: single determination or n ≧ 2 independent determinations, read-out: Biochemical IC50 CREBBP
How it was run: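 Detection used nickel-chelate acceptor plus streptavidin donor AlphaScreen beads, 1 h room temperature. Percent inhibition fitted by non-linear regression to IC50.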

THP-1 cells = assay: Cell growth inhibition assay (CellTiter-Glo), THP-1; details: for GI50: Homo sapiens, THP-1, read-out: THP-1 GI50; for THP-1 TGI: THP-1 cells, total growth inhibition, CellTiter-Glo;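 as to all read-outs here: viability read as cellular ATP luminescence after 4 days, 3-fold dilution series from 10 µM, DMSO vehicle-treated cells taken as 100%, cell-free medium wells as −100%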

Chain of BRD3 (His-Brd3(20-477)) (Q15059 20-477): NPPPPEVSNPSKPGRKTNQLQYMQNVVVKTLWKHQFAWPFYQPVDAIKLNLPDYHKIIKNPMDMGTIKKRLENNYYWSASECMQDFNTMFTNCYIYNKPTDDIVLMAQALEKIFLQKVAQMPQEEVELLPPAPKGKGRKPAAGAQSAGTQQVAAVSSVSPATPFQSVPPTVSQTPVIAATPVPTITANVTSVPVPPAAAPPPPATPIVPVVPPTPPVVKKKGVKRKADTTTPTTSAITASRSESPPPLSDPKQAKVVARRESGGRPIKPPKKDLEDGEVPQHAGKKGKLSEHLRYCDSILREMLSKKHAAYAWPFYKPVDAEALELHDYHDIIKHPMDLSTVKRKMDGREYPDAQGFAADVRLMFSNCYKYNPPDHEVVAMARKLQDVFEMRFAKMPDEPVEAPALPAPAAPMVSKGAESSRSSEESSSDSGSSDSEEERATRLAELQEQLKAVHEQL
Chain of CREBBP bromodomain (His-CREBBP(1081-1197)) (Q92793 1081-1197): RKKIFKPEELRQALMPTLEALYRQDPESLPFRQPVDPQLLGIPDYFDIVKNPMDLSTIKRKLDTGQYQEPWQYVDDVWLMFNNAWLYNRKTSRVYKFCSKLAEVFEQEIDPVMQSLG
Chain of BRD2 (His-Brd2(60-472)) (P25440 60-472): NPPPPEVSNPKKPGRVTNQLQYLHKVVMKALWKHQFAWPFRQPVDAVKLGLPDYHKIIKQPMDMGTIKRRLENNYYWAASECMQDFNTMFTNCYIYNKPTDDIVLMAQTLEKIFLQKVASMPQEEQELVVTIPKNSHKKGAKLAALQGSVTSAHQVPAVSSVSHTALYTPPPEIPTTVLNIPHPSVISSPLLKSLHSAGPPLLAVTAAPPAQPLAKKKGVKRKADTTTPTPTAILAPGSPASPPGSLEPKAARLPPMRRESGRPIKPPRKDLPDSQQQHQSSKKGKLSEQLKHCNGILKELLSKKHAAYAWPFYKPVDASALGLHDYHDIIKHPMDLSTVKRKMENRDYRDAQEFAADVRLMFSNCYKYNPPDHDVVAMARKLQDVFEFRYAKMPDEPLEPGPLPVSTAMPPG

Row | IC50 (BRD3 (His-Brd3(20-477))) | GI50 (K-562 cells) | IC50 (BRD2 (His-Brd2(60-472))) | IC50 (BRD4 (His-Brd4(44-477))) | GI50 (MV-4-11 cells) | IC50 [1] | IC50 [2] | GI50 (THP-1 cells) | SMILES | K-562 TGI (K-562 cells) | MV-4-11 TGI (MV-4-11 cells) | THP-1 TGI (THP-1 cells)
1 | 63 nM | 2480 nM | 80 nM | 35 nM | 271 nM | 710 nM | > 37000 nM | 981 nM | COc1ccc(-c2nc3c(n2C(C)C)C(c2ccc(Cl)cc2)N(c2cc(OC)c4nnc(C)n4c2)C3=O)cn1 (stereo not drawn) [Example 52, 6-(4-chlorophenyl)-1-isopropyl-5-(8-methoxy-3-methyl-[1,2,4]triazolo[4,3-a]pyridin-6-yl)-2-(6-methoxypyridin-3-yl)-5,6-dihydropyrrolo[3,4-d]imidazol-4(1H)-one] | >10000 nM | 409 nM | 1920 nM
2 | 200 nM | 7990 nM | 220 nM | 92 nM | 505 nM | 1330 nM | > 37000 nM | 1270 nM | COc1cc(N2C(=O)c3nc(C4=CCOCC4)n(C(C)C)c3C2c2ccc(Cl)cc2)cn2c(C)nnc12 (stereo not drawn) [Example 53, 6-(4-chlorophenyl)-2-(3,6-dihydro-2H-pyran-4-yl)-1-isopropyl-5-(8-methoxy-3-methyl-[1,2,4]triazolo[4,3-a]pyridin-6-yl)-5,6-dihydropyrrolo[3,4-d]imidazol-4(1H)-one] | >10000 nM | 939 nM | 3740 nM
3 | 92 nM | 7250 nM | 110 nM | 56 nM | 706 nM | 2800 nM | > 37000 nM | 2000 nM | COc1ccc(-c2nc3c(n2C)C(c2ccc(Cl)cc2)N(c2cc(OC)c4nnc(C)n4c2)C3=O)cn1 (stereo not drawn) [Example 55, 6-(4-chlorophenyl)-5-(8-methoxy-3-methyl-[1,2,4]triazolo[4,3-a]pyridin-6-yl)-2-(6-methoxypyridin-3-yl)-1-methyl-5,6-dihydropyrrolo[3,4-d]imidazol-4(1H)-one] | >10000 nM | 1060 nM | 4410 nM

More lines, now with the values behind:

Row | SMILES | IC50 (BRD3 (His-Brd3(20-477))) | GI50 (K-562 cells) | IC50 (BRD2 (His-Brd2(60-472))) | IC50 (BRD4 (His-Brd4(44-477))) | GI50 (MV-4-11 cells) | IC50 [1] | IC50 [2] | GI50 (THP-1 cells) | K-562 TGI (K-562 cells) | MV-4-11 TGI (MV-4-11 cells) | THP-1 TGI (THP-1 cells)
4 | Cc1cc(N2C(=O)c3[nH]c(C4CC4)nc3[C@H]2c2ccc(Cl)cc2)cn(C)c1=O [Example 47, R-6-(4-chlorophenyl)-2-cyclopropyl-5-(1,5-dimethyl-6-oxo-1,6-dihydropyridin-3-yl)-5,6-dihydropyrrolo[3,4-d]imidazol-4(3H)-one] | 38 nM | 305 nM | 39 nM | 40 nM | 42.5 nM | 81.3 nM | 1100 nM | 74.3 nM | >10000 nM | 102.8 nM | 141 nM
5 | COc1ncc(-c2nc3c(n2C)C(c2ccc(Cl)cc2)N(c2cc(OC)c4nnc(C)n4c2)C3=O)c(OC)n1 (stereo not drawn) [Example 54, 6-(4-chlorophenyl)-2-(2,4-dimethoxypyrimidin-5-yl)-5-(8-methoxy-3-methyl-[1,2,4]triazolo[4,3-a]pyridin-6-yl)-1-methyl-5,6-dihydropyrrolo[3,4-d]imidazol-4(1H)-one] | 98 nM | > 10000 nM | 120 nM | 59 nM | 2100 nM | 3390 nM | > 37000 nM | 3710 nM | >10000 nM | 3600 nM | >10000 nM
6 | COc1cc(N2C(=O)c3nc(C4CC4)n(C)c3C2c2ccc(Cl)cc2)cn2c(C)nnc12 (stereo not drawn) [Example 56, 6-(4-chlorophenyl)-2-cyclopropyl-5-(8-methoxy-3-methyl-[1,2,4]triazolo[4,3-a]pyridin-6-yl)-1-methyl-5,6-dihydropyrrolo[3,4-d]imidazol-4(1H)-one] | 210 nM | 3230 nM | 290 nM | 130 nM | 816 nM | 1210 nM | > 37000 nM | 1240 nM | >10000 nM | 1340 nM | 3670 nM
